Some test systems named below: HOP-62 NSCLC; PC-3 prostate; SN12C renal; LOX IMVI melanoma; SNB-19 CNS; OVCAR-5 ovarian; SK-OV-3 ovarian; DU-145 prostate; HL-60(TB) leukemia; SNB-75 CNS; EKVX NSCLC; MALME-3M melanoma; SW-620 colon; SF-295 CNS; SK-MEL-28 melanoma; COLO 205 colon; OVCAR-3 ovarian; MDA-MB-231 breast; SR leukemia; SF-539 CNS.
Holding throughout (test): NCI anticancer screen, dose series, 48 h

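Grown in 96-well plates, cells were treated for 48 hours with each compound at five concentrations. Insufficient inhibition: endpoint recorded as highest concentration tested. TGI is the concentration that stops growth completely.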 Where only a bound is given, the exact number is not on record here.

Consider `COc1cc2c[n+](C)c3c4cc5c(cc4ccc3c2cc1OC)OCO5`, for which the TGI is 16.4 µM in the experiment with HOP-62 NSCLC; > 100 µM in the experiment with PC-3 prostate; > 27.8 µM in the experiment on SN12C renal; 24.8 µM with LOX IMVI melanoma; 21.5 µM in the experiment with SNB-19 CNS; 4.84 µM in the experiment with OVCAR-5 ovarian. The TGI with SK-OV-3 ovarian worked out at 5.64 µM; with DU-145 prostate it was 9.19 µM; in the experiment with HL-60(TB) leukemia it was 22.5 µM; in the experiment with SNB-75 CNS, 0.767 µM; in the experiment on EKVX NSCLC, 18.7 µM; with MALME-3M melanoma it was 37.5 µM. Besides, the TGI in the experiment on SW-620 colon was 26 µM; in the experiment on SF-295 CNS it was 57.7 µM; with SK-MEL-28 melanoma, > 82.4 µM; in the experiment with COLO 205 colon it was 4.48 µM; with OVCAR-3 ovarian it was 9.39 µM; with MDA-MB-231 breast, > 100 µM. The TGI was found to be 22.8 µM in the experiment with SR leukemia and 5.32 µM in the experiment on SF-539 CNS.

In the case of `O=C(N/N=C/c1ccc2c(c1)OCO2)Nc1ccccc1Cl`, the TGI in the experiment on HOP-62 NSCLC is > 100 µM; in the experiment with PC-3 prostate, > 100 µM; in the experiment with SN12C renal it was > 46.7 µM; with LOX IMVI melanoma, > 100 µM; in the experiment with SNB-19 CNS it was > 79.3 µM; in the experiment with OVCAR-5 ovarian, > 100 µM. For the same compound, the TGI is > 24.9 µM in the experiment with SK-OV-3 ovarian; > 20.3 µM with DU-145 prostate; > 23.1 µM with HL-60(TB) leukemia; 2.38 µM in the experiment on SNB-75 CNS; > 60.5 µM in the experiment on EKVX NSCLC; 56.2 µM in the experiment on MALME-3M melanoma. For the same compound, the TGI with SW-620 colon is > 100 µM; in the experiment with SF-295 CNS, 6.84 µM; in the experiment on SK-MEL-28 melanoma, > 100 µM; in the experiment on COLO 205 colon, 5.52 µM; in the experiment on OVCAR-3 ovarian, 2.82 µM; in the experiment on MDA-MB-231 breast it was > 100 µM. Moreover, the TGI was > 34.2 µM in the experiment on SR leukemia and 24.8 µM in the experiment with SF-539 CNS.

Consider `CC(C)=CCC[C@@H](C)C1=C(O)C(O)C(C)=C2N=C(c3ccccc3)C(=O)OC21` (stereo not given in full), for which the TGI was 8.5 µM in the experiment on HOP-62 NSCLC; > 25 µM with PC-3 prostate; > 25 µM in the experiment on SN12C renal; > 25 µM in the experiment with LOX IMVI melanoma; > 25 µM with SNB-19 CNS; > 25 µM in the experiment with OVCAR-5 ovarian. The TGI was 11.1 µM with SK-OV-3 ovarian; > 25 µM in the experiment on DU-145 prostate; 1.63 µM in the experiment with HL-60(TB) leukemia; > 19.3 µM in the experiment with SNB-75 CNS; > 25 µM in the experiment on EKVX NSCLC; 15.4 µM in the experiment with MALME-3M melanoma. For the same compound, the TGI in the experiment with SW-620 colon is > 25 µM; in the experiment on SF-295 CNS it was > 10.9 µM; in the experiment on SK-MEL-28 melanoma, > 25 µM; with COLO 205 colon it was > 25 µM; in the experiment with OVCAR-3 ovarian it was > 25 µM; with MDA-MB-231 breast it was 17.3 µM. Further, the TGI in the experiment on SR leukemia is > 20.5 µM; in the experiment on SF-539 CNS, 13.8 µM.

`Cc1cc(C)nc(NS(=O)(=O)c2ccc(NNc3c4ccccc4nc4c(C(=O)Nc5ccc(S(=O)(=O)Nc6ncccn6)cc5)cccc34)cc2)n1`: the TGI with HOP-62 NSCLC was > 100 µM; with PC-3 prostate, 71.3 µM; with SN12C renal, 75.1 µM; in the experiment on LOX IMVI melanoma it was 45.1 µM; in the experiment on SNB-19 CNS it was > 100 µM; in the experiment on OVCAR-5 ovarian it was 52.5 µM. Moreover, the TGI in the experiment with SK-OV-3 ovarian was 89.9 µM; with DU-145 prostate, > 100 µM; with HL-60(TB) leukemia, 62.9 µM; in the experiment with SNB-75 CNS, 73.9 µM; in the experiment with EKVX NSCLC, 54.3 µM; in the experiment with MALME-3M melanoma, 60.3 µM. Moreover, the TGI in the experiment on SW-620 colon was 55.2 µM; with SF-295 CNS, > 100 µM; in the experiment on SK-MEL-28 melanoma, 65 µM; with COLO 205 colon it was 54.3 µM; with OVCAR-3 ovarian, 42.2 µM; in the experiment with MDA-MB-231 breast it was 65.3 µM. For the same compound, the TGI in the experiment on SR leukemia was determined as 59 µM; with SF-539 CNS it was 69.4 µM.

For `Cc1ccc2c(c1)C(=O)/C(=N/Nc1ccc(Cl)cc1)CCO2`, the TGI in the experiment on HOP-62 NSCLC, in the experiment with PC-3 prostate, with SN12C renal, in the experiment with LOX IMVI melanoma, in the experiment on SNB-19 CNS and with OVCAR-5 ovarian was > 100 µM in each case. Further, the TGI in the experiment on SK-OV-3 ovarian, in the experiment with DU-145 prostate, with HL-60(TB) leukemia, in the experiment on SNB-75 CNS, with EKVX NSCLC and with MALME-3M melanoma was > 100 µM throughout. Also, the TGI with SW-620 colon, in the experiment on SF-295 CNS, in the experiment on SK-MEL-28 melanoma, with COLO 205 colon, with OVCAR-3 ovarian and with MDA-MB-231 breast was > 100 µM each time. Moreover, the TGI in the experiment on SR leukemia and in the experiment with SF-539 CNS was > 100 µM in each case.

Consider `CN1CCC2(CC1)SC[C@H]1C(=O)N(c3ccc(Cl)cc3)C(=O)N12`, for which the TGI in the experiment on HOP-62 NSCLC, with PC-3 prostate, in the experiment on SN12C renal, with LOX IMVI melanoma, in the experiment on SNB-19 CNS and with OVCAR-5 ovarian was > 100 µM throughout. The TGI in the experiment with SK-OV-3 ovarian, in the experiment on DU-145 prostate, with HL-60(TB) leukemia, in the experiment with SNB-75 CNS, in the experiment with EKVX NSCLC and in the experiment with MALME-3M melanoma was > 100 µM in each case. Moreover, the TGI in the experiment with SW-620 colon, with SF-295 CNS, in the experiment on SK-MEL-28 melanoma, in the experiment on COLO 205 colon, with OVCAR-3 ovarian and with MDA-MB-231 breast was > 100 µM each time. Further, the TGI in the experiment on SR leukemia and in the experiment on SF-539 CNS was > 100 µM throughout.

For `CCC(C)C(C(=O)N/N=C1/SCC(=O)N1c1ccccc1)C(=O)N/N=C1/SCC(=O)N1c1ccccc1` (stereo not given), the TGI with HOP-62 NSCLC, with PC-3 prostate, with SN12C renal, in the experiment with LOX IMVI melanoma, with SNB-19 CNS and in the experiment with OVCAR-5 ovarian was > 100 µM throughout. In addition, the TGI is 74.6 µM in the experiment with SK-OV-3 ovarian; > 100 µM in the experiment with DU-145 prostate; > 100 µM in the experiment on HL-60(TB) leukemia; > 100 µM in the experiment on SNB-75 CNS; > 100 µM with EKVX NSCLC; 44.7 µM in the experiment with MALME-3M melanoma. The TGI was > 100 µM with SW-620 colon; > 100 µM in the experiment on SF-295 CNS; 33.9 µM in the experiment with SK-MEL-28 melanoma; > 100 µM in the experiment with COLO 205 colon; > 100 µM with OVCAR-3 ovarian; 88.7 µM in the experiment on MDA-MB-231 breast. In addition, the TGI in the experiment with SR leukemia and in the experiment with SF-539 CNS was > 100 µM each time.

These data come from PubChem BioAssay (NCI).
